Data from patent US10392391B2 (Vertex Pharmaceuticals Incorporated, priority 2012, dated 2019).

The molecules below were run against ATR kinase (full-length ATR) (Homo sapiens (Human), UniProt Q13535) (assay: ATR inhibition assay (radioactive-phosphate incorporation)). Details: not given.
Type: biochemical
Method in brief: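 Radiometric 33P incorporation by 5 nM full-length ATR into 800 μM target peptide with 10 μM [γ-33P]ATP, in 50 mM Tris/HCl pH 7.5, 10 mM MgCl2, 1 mM DTT, 7% DMSO, 25° C. Compound pre-incubated 10 minutes; reaction stopped after 24 hours, captured on phosphocellulose. Ki(app) from non-linear regression of initial rates.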

Chain of ATR kinase (full-length ATR) (Q13535 whole entry): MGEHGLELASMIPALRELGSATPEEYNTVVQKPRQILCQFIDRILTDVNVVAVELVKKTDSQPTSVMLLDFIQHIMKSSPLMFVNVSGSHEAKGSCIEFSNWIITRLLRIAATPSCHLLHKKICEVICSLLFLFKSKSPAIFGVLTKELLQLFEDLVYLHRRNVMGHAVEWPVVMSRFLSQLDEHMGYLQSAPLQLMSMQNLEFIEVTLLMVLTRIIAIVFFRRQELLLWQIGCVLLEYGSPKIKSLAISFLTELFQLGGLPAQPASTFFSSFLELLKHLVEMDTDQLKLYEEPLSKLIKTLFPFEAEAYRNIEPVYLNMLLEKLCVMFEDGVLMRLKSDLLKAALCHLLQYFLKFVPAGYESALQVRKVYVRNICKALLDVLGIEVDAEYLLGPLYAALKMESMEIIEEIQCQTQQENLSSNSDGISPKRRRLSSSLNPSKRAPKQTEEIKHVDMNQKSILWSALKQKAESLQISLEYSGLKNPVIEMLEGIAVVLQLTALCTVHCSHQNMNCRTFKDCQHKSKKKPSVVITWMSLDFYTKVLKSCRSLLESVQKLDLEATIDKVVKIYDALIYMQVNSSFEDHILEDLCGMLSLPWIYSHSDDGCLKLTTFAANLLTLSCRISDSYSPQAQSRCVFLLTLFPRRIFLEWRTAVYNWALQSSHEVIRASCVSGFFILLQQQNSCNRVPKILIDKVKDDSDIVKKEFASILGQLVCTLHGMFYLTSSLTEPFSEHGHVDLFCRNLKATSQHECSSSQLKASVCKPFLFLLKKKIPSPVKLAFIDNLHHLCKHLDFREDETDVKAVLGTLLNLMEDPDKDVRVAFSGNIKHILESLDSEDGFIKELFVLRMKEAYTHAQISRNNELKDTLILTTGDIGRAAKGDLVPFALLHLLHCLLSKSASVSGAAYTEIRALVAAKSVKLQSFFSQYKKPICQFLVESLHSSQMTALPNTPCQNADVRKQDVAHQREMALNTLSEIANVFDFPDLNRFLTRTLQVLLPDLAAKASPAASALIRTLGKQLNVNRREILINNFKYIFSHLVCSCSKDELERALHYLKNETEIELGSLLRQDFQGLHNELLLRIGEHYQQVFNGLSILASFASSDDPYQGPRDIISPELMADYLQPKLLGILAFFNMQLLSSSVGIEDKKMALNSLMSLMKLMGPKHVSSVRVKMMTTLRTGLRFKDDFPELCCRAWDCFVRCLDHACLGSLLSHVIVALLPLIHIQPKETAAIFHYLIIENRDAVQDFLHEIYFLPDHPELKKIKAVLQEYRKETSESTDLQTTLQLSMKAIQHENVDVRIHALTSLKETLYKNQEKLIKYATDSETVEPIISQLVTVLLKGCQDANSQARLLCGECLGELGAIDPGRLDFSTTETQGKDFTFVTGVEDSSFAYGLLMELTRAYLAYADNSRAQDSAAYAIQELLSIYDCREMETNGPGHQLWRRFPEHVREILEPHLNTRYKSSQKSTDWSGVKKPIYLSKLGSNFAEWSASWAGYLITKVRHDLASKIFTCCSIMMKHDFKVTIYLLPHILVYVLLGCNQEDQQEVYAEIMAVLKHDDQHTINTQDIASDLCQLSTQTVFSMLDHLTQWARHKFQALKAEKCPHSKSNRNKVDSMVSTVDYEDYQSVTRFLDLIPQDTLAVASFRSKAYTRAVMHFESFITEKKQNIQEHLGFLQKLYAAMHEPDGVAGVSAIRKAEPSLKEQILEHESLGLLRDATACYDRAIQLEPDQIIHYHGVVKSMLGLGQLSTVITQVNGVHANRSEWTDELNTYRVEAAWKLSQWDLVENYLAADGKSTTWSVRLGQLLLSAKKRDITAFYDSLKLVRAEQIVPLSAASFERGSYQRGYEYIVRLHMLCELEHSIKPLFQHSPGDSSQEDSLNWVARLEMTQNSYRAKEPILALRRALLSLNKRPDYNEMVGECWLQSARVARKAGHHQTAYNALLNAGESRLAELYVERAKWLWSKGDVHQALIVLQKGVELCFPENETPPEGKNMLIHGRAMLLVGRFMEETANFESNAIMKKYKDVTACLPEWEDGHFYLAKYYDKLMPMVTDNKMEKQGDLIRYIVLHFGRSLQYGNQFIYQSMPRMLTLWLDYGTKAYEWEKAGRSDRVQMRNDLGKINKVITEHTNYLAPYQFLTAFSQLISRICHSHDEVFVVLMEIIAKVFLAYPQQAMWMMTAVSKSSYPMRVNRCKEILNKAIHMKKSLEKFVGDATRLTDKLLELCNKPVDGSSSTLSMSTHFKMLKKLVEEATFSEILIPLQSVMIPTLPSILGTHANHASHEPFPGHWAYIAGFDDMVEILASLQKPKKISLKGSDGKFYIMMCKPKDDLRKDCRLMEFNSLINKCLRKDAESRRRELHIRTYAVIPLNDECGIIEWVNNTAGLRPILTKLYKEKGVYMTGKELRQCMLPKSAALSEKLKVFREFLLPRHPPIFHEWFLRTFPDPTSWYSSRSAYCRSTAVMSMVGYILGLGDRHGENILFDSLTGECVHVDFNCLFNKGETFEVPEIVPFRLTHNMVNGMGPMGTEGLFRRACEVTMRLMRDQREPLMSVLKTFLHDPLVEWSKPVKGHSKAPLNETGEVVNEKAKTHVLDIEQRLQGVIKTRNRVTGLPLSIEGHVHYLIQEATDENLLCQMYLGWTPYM

Row | Ki | Compound
1 | 10 to 1000 nM | C[N+]1([O-])CCN(C(=O)C2CCN(c3c(F)cncc3NC(=O)c3c(N)nn4cc(F)cnc34)CC2)CC1 [I-G-95, 4-(1-(3-(2-amino-6-fluoropyrazolo[1,5-a]pyrimidine-3-carboxamido)-5-fluoropyridin-4-yl)piperidine-4-carbonyl)-1-methylpiperazine 1-oxide]

Same assay, conditions: Ki(app), 5 nM full-length ATR, 10 μM ATP, 25° C.

Row | Ki | Compound
2 | 10 to 1000 nM | N#CC1CN(C(=O)C2CCN(c3c(F)cncc3NC(=O)c3c(N)nn4cc(F)cnc34)CC2)C1 [I-G-76, 2-amino-N-(4-(4-(3-cyanoazetidine-1-carbonyl)piperidin-1-yl)-5-fluoropyridin-3-yl)-6-fluoropyrazolo[1,5-a]pyrimidine-3-carboxamide]
3 | 10 to 1000 nM | Nc1nn2cc(F)cnc2c1C(=O)Nc1cnccc1N1CCC(C(=O)N2CCC2)CC1 [I-G-77, 2-amino-N-(4-(4-(azetidine-1-carbonyl)piperidin-1-yl)pyridin-3-yl)-6-fluoropyrazolo[1,5-a]pyrimidine-3-carboxamide]
4 | 10 to 1000 nM | COC1CN(C(=O)C2CCN(c3ccncc3NC(=O)c3c(N)nn4cc(F)cnc34)CC2)C1 [I-G-78, 2-amino-6-fluoro-N-(4-(4-(3-methoxyazetidine-1-carbonyl)piperidin-1-yl)pyridin-3-yl)pyrazolo[1,5-a]pyrimidine-3-carboxamide]
5 | 10 to 1000 nM | COC1(C)CN(C(=O)C2CCN(c3ccncc3NC(=O)c3c(N)nn4cc(F)cnc34)CC2)C1 [I-G-79, 2-amino-6-fluoro-N-(4-(4-(3-methoxy-3-methylazetidine-1-carbonyl)piperidin-1-yl)pyridin-3-yl)pyrazolo[1,5-a]pyrimidine-3-carboxamide]
6 | 10 to 1000 nM | Nc1nn2cc(F)cnc2c1C(=O)Nc1cnccc1N1CCC(C(=O)N2CC(F)(F)C2)CC1 [I-G-80, 2-amino-N-(4-(4-(3,3-difluoroazetidine-1-carbonyl)piperidin-1-yl)pyridin-3-yl)-6-fluoropyrazolo[1,5-a]pyrimidine-3-carboxamide]
7 | 10 to 1000 nM | N#CC1CN(C(=O)C2CCN(c3ccncc3NC(=O)c3c(N)nn4cc(F)cnc34)CC2)C1 [I-G-81, 2-amino-N-(4-(4-(3-cyanoazetidine-1-carbonyl)piperidin-1-yl)pyridin-3-yl)-6-fluoropyrazolo[1,5-a]pyrimidine-3-carboxamide]
8 | 10 to 1000 nM | Nc1nn2cc(F)cnc2c1C(=O)Nc1cnccc1N1CCC(C(=O)N2CC(F)C2)CC1 [I-G-82, 2-amino-6-fluoro-N-(4-(4-(3-fluoroazetidine-1-carbonyl)piperidin-1-yl)pyridin-3-yl)pyrazolo[1,5-a]pyrimidine-3-carboxamide]
9 | 10 to 1000 nM | Nc1nn2cc(F)cnc2c1C(=O)Nc1cnccc1N1CCC(C(=O)N2CCCC2)CC1 [I-G-83, 2-amino-6-fluoro-N-(4-(4-(pyrrolidine-1-carbonyl)piperidin-1-yl)pyridin-3-yl)pyrazolo[1,5-a]pyrimidine-3-carboxamide]
10 | 10 to 1000 nM | Nc1nn2cc(F)cnc2c1C(=O)Nc1cnccc1N1CCC(C(=O)N2CCC3(COC3)C2)CC1 [I-G-84, N-(4-(4-(2-oxa-6-azaspiro[3.4]octane-6-carbonyl)piperidin-1-yl)pyridin-3-yl)-2-amino-6-fluoropyrazolo[1,5-a]pyrimidine-3-carboxamide]
11 | 10 to 1000 nM | Nc1nn2cc(F)cnc2c1C(=O)Nc1cnccc1N1CCC(C(=O)N2CCOCC2)CC1 [I-G-85, 2-amino-6-fluoro-N-(4-(4-(morpholine-4-carbonyl)piperidin-1-yl)pyridin-3-yl)pyrazolo[1,5-a]pyrimidine-3-carboxamide]
12 | 10 to 1000 nM | CS(=O)(=O)C1CN(C(=O)C2CCN(c3c(F)cncc3NC(=O)c3c(N)nn4cc(F)cnc34)CC2)C1 [I-G-86, 2-amino-6-fluoro-N-(5-fluoro-4-(4-(3-(methylsulfonyl)azetidine-1-carbonyl)piperidin-1-yl)pyridin-3-yl)pyrazolo[1,5-a]pyrimidine-3-carboxamide]
13 | 10 to 1000 nM | Nc1nn2cc(Cl)cnc2c1C(=O)Nc1cncc(F)c1N1CCC(C(=O)N2CCN3CCC2CC3)CC1 [I-G-87, N-(4-(4-(1,4-diazabicyclo[3.2.2]nonane-4-carbonyl)piperidin-1-yl)-5-fluoropyridin-3-yl)-2-amino-6-chloropyrazolo[1,5-a]pyrimidine-3-carboxamide]
14 | 10 to 1000 nM | Nc1nn2cc(F)cnc2c1C(=O)Nc1cnccc1N1CCC(C(=O)N2CC3(COC3)C2)CC1 [I-G-88, N-(4-(4-(2-oxa-6-azaspiro[3.3]heptane-6-carbonyl)piperidin-1-yl)pyridin-3-yl)-2-amino-6-fluoropyrazolo[1,5-a]pyrimidine-3-carboxamide]
15 | 10 to 1000 nM | CS(=O)(=O)C1CN(C(=O)C2CCN(c3ccncc3NC(=O)c3c(N)nn4cc(F)cnc34)CC2)C1 [I-G-89, 2-amino-6-fluoro-N-(4-(4-(3-(methylsulfonyl)azetidine-1-carbonyl)piperidin-1-yl)pyridin-3-yl)pyrazolo[1,5-a]pyrimidine-3-carboxamide]
16 | 10 to 1000 nM | Nc1nn2cc(F)cnc2c1C(=O)Nc1cnccc1N1CCC(C(=O)N2CC3(CCO3)C2)CC1 [I-G-90, N-(4-(4-(1-oxa-6-azaspiro[3.3]heptane-6-carbonyl)piperidin-1-yl)pyridin-3-yl)-2-amino-6-fluoropyrazolo[1,5-a]pyrimidine-3-carboxamide]
17 | 10 to 1000 nM | CCOC1CN(C(=O)C2CCN(c3ccncc3NC(=O)c3c(N)nn4cc(F)cnc34)CC2)C1 [I-G-91, 2-amino-N-(4-(4-(3-ethoxyazetidine-1-carbonyl)piperidin-1-yl)pyridin-3-yl)-6-fluoropyrazolo[1,5-a]pyrimidine-3-carboxamide]
18 | 10 to 1000 nM | CC1(N2CCN(C(=O)C3CCN(c4c(F)cncc4NC(=O)c4c(N)nn5cc(F)cnc45)CC3)CC2)COC1 [I-G-92, 2-amino-6-fluoro-N-(5-fluoro-4-(4-(4-(3-methyloxetan-3-yl)piperazine-1-carbonyl)piperidin-1-yl)pyridin-3-yl)pyrazolo[1,5-a]pyrimidine-3-carboxamide]
19 | 10 to 1000 nM | CO[C@@H]1CCN(C(=O)C2CCN(c3ccncc3NC(=O)c3c(N)nn4cc(F)cnc34)CC2)C1 [I-G-93, (R)-2-amino-6-fluoro-N-(4-(4-(3-methoxypyrrolidine-1-carbonyl)piperidin-1-yl)pyridin-3-yl)pyrazolo[1,5-a]pyrimidine-3-carboxamide]
20 | 10 to 1000 nM | CO[C@H]1CCN(C(=O)C2CCN(c3ccncc3NC(=O)c3c(N)nn4cc(F)cnc34)CC2)C1 [I-G-94, (S)-2-amino-6-fluoro-N-(4-(4-(3-methoxypyrrolidine-1-carbonyl)piperidin-1-yl)pyridin-3-yl)pyrazolo[1,5-a]pyrimidine-3-carboxamide]
21 | 10 to 1000 nM | CN1CC(N2CCN(C(=O)C3CCN(c4c(F)cncc4NC(=O)c4c(N)nn5cc(F)cnc45)CC3)CC2)C1 [I-G-96, 2-amino-6-fluoro-N-(5-fluoro-4-(4-(4-(1-methylazetidin-3-yl)piperazine-1-carbonyl)piperidin-1-yl)pyridin-3-yl)pyrazolo[1,5-a]pyrimidine-3-carboxamide]
22 | 10 to 1000 nM | COCC1CN(C(=O)C2CCN(c3c(F)cncc3NC(=O)c3c(N)nn4cc(F)cnc34)CC2)C1 [I-G-98, 2-amino-6-fluoro-N-(5-fluoro-4-(4-(3-(methoxymethyl)azetidine-1-carbonyl)piperidin-1-yl)pyridin-3-yl)pyrazolo[1,5-a]pyrimidine-3-carboxamide]
